Earlier results on one molecule are cited in patent publication US20240423897A1, “LONGEVITY SERUM” (Wellbeam Consumer Health Intermediate, LLC, priority 2023, published 2024).

Molecules are shown by their SMILES.

For the data set, the system named is skin. The following applies: topical application.

Consider `C=C[C@@](C)(/C=C/c1ccc(O)cc1)CCC=C(C)C` [bakuchiol], for which the “effect on lines and wrinkles, pigmentation, elasticity, firmness, and photo-damage” value was “significant improvement”; the “irritating effect on the skin” value was “no irritating effect”.
